{"source": "patent US20240343723A1", "about": "“CRYSTAL FORM OF LANIFIBRANOR, PREPARATION METHOD THEREFOR, AND USE THEREOF” (CRYSTAL PHARMACEUTICAL (SUZHOU) CO., LTD., priority 2021, published 2024)", "type_in_all_cases": "physicochemical", "key": {"[1]": {"assay": "Dynamic vapor sorption (DVS) hygroscopicity, with XRPD before and after DVS", "settings": "for crystalline state after DVS (XRPD): humidity cycle 0%-95%-0% RH; for weight gain from 0% to 70% RH: 25° C., cycle of 0%-95%-0% RH", "method": "Dynamic Vapor Sorption (DVS) was measured via an SMS (Surface Measurement Systems Ltd.) intrinsic DVS instrument. The instrument control software is DVS-Intrinsic control software. Typical Parameters for DVS test are as follows: • Temperature: 25° C. • Gas and flow rate: N2, 200 mL/min • RH range: 0% RH to 95% RH Dynamic vapor sorption (DVS) analyzer was applied to evaluate the hygroscopicity of amorphous with a certain amount of sample obtained by Example 6. The weight gains at each relative humidity were recorded in a cycle of 0%-95%-0% RH. […] Dynamic vapor sorption (DVS) analyzer was applied to evaluate hygroscopicity of Form CSV with a certain amount of sample. The weight gains at each relative humidity were recorded in a cycle of 0%-95%-0% RH. Dynamic vapor sorption (DVS) analyzer was applied to evaluate hygroscopicity of Form CSIII with a certain amount of sample. The weight gains at each relative humidity were recorded in a cycle of 0%-95%-0% RH. The XRPD patterns of Form CSIII before and after DVS test are shown in FIG. 13 and the DVS curve of Form CSIII is shown in FIG. 13."}, "[2]": {"assay": "Physical and chemical stability on storage (XRPD, HPLC)", "settings": "for chemical purity during storage: HPLC; for Form after storage: XRPD", "method": "A certain amount of Form CSV of the present disclosure was stored under different conditions of 40° C./75% RH and 60° C./75% RH. Crystalline form and chemical purity were checked by XRPD and HPLC, respectively. Open packaged: Put the sample into a glass vial, cover the vial with aluminum foil, and punch 5-10 holes in the foil. Sealed packaged: Put the sample into a glass vial, and seal the vial and desiccant in an aluminum foil bag. A certain amount of Form CSIII of the present disclosure was stored under different conditions of 25° C./60% RH and 40° C./75% RH with sealed and open packaged. Crystalline form and chemical purity were checked by XRPD and HPLC, respectively. Open packaged: Put the sample into a glass vial, cover the vial with an aluminum foil, and punch 5-10 holes in the foil. Sealed packaged: Put the sample into a glass vial, and seal the vial and desiccant in an aluminum foil bag."}, "[3]": {"assay": "Flowability by compressibility index (bulk and tapped density)", "method": "Compressibility index is usually utilized to evaluate the flowability of powder or granules during the drug product process. Compressibility index test method is as follows: a certain amount of powder was added into a measuring cylinder and bulk volume was recorded. Then the powder was tapped to make it in the tightest state and the tapped volume was recorded. The bulk density (ρ0) and tapped density (ρf) were calculated and compressibility index was calculated according to c=(ρf−ρ0)/ρf."}, "[4]": {"assay": "Adhesiveness: material sticking to the punch after compression", "settings": "about 30 mg, 8 mm round tooling, 10 kN held for 30s", "method": "ENERPAC manual tablet press was used for testing. Approximately 30 mg of Form CSV was weighed and then added into the dies of @8 mm round tooling, compressed at 10 kN and held for 30s. The punch was weighed and the amount of material sticking to the punch was calculated. The compression was repeated twice and the maximum amount and average amount of material sticking to the punch during the compression were recorded."}, "[5]": {"assay": "Physical stability upon mechanical force (tableting, XRPD)", "text": "A certain amount of Form CSV was compressed into tablet under different pressures with suitable tableting die. Crystalline form before and after tableting were checked by XRPD."}, "[6]": {"settings": "40° C./75% RH, open and sealed package"}}, "note": "Entries after “also recorded” stand apart in the source; their conditions may differ."}
{"compound": "O=C(O)CCCc1cc2cc(Cl)ccc2n1S(=O)(=O)c1ccc2ncsc2c1", "note": "[Form CSIII, 5-Chloro-1-[(6-benzothiazolyl)sulfonyl]-1H-indole-2-butanoic acid]", "values": [{"measurement": "crystalline state after DVS (XRPD)", "setting": "[1]", "result": "remains unchanged"}, {"measurement": "chemical purity during storage", "setting": "[2]; 25° C./60% RH, at least 6 months", "result": "above 99.5%"}, {"measurement": "time for which the form is stable", "setting": "[2]; 25° C./60% RH, sealed and open packaged", "result": "at least 6 months"}, {"measurement": "chemical purity during storage", "setting": "[2]; 40° C./75% RH, at least 2 months", "result": "above 99.5%"}, {"measurement": "time for which the form is stable", "setting": "[2]; [6]", "result": "at least 2 months"}]}
{"compound": "O=C(O)CCCc1cc2cc(Cl)ccc2n1S(=O)(=O)c1ccc2ncsc2c1", "note": "[Form CSV, 5-Chloro-1-[(6-benzothiazolyl)sulfonyl]-1H-indole-2-butanoic acid]", "values": [{"measurement": "weight gain from 0% to 70% RH", "setting": "[1]; DVS", "result": 0.35, "unit": "%"}, {"measurement": "crystalline state after DVS (XRPD)", "setting": "[1]", "result": "remains unchanged; also recorded: doesn't change"}, {"measurement": "time for which the form is stable", "setting": "[2]; [6]", "result": "at least 9 months"}, {"measurement": "Form after storage", "setting": "[2]; 40° C./75% RH, open packaged, 9 months", "result": "Form CSV"}, {"measurement": "Form after storage", "setting": "[2]; 40° C./75% RH, sealed packaged, 9 months", "result": "Form CSV"}, {"measurement": "time for which the form is stable", "setting": "[2]; 60° C./75% RH, open and sealed package", "result": "at least 1 month"}, {"measurement": "Form after storage", "setting": "[2]; 60° C./75% RH, open packaged, 1 month", "result": "Form CSV"}, {"measurement": "Form after storage", "setting": "[2]; 60° C./75% RH, sealed packaged, 1 month", "result": "Form CSV"}, {"measurement": "Bulk density", "setting": "[3]", "result": 0.412, "unit": "g/mL"}, {"measurement": "Tapped density", "setting": "[3]", "result": 0.515, "unit": "g/mL"}, {"measurement": "Flowability", "setting": "[3]; class by compressibility index, ICH Q4B Annex 13", "result": "Fair (16-20)"}, {"measurement": "average adhesion amount", "setting": "[4]", "result": 0.45, "unit": "mg"}, {"measurement": "Solid form after tableting", "setting": "[5]; Pressure 5 kN", "result": "Form CSV"}, {"measurement": "Solid form after tableting", "setting": "[5]; Pressure 10 kN", "result": "Form CSV"}, {"measurement": "Solid form after tableting", "setting": "[5]; Pressure 20 kN", "result": "Form CSV"}]}
{"compound": "O=C(O)CCCc1cc2cc(Cl)ccc2n1S(=O)(=O)c1ccc2ncsc2c1", "note": "[amorphous, 5-Chloro-1-[(6-benzothiazolyl)sulfonyl]-1H-indole-2-butanoic acid, reference compound]", "values": [{"measurement": "weight gain of amorphous from 0 to 70% RH relative to that of Form CSV", "setting": "[1]; DVS, 0 to 70% RH", "result": "about 3.4 times"}, {"measurement": "weight gain from 0% to 70% RH", "setting": "[1]; DVS", "result": 1.18, "unit": "%"}, {"measurement": "weight gain from 0% to 70% RH", "setting": "[1]; DVS, listed as prior art amorphous", "result": 1.18, "unit": "%"}]}
